Square brackets hold non-standard residues; d marks the D form. Ends that are not written are not given here. Peptide text beside a SMILES is read from it.
Assays:
[1] = test system: Aß; experiment: Efficacy in reducing Aß in APP transgenic mice (analysis in CSF and brain); format: in vivo; conditions: Tg mice over-expressing Aß
Method: Critical to the development of any therapeutic for diseases like AD is the requirement that it can be delivered to the brain. Delivery to brain and efficacy of P8 and 8M2D in reducing Aß was analyzed in the transgenic mice described in Section 6.3 above.
The maximum efficacious dose of 8M2D in Tg mice over-expressing Aß is at just over 50 mg/kg. This gives a 65% reduction in Aß 42. […] Experiments are performed to establish the minimum efficacious dose in Tg mice.

[2] = Metabolic stability of peptides in fresh human plasma (LC/MS/MS); format: in vitro ADME
Method: P8, 8M1, and 8M1D were generated according to Example 1 with purities ranging from 98.0% to 99.0%. A primary 1.00 mM stock solution was prepared in either acetonitrile or acetonitrile:water (1:1, v/v) for each peptide. A 0.200 mM working stock was made from the primary stock in acetonitrile:water (1:1, v/v), which was used for the reactions. The primary and working stock solutions were stored at −20° C. when not in use, and they were kept at room temperature for as short a time as possible when in use. Fresh human plasma were maintained by adding sodium heparin as an anticoagulant.
The incubation procedures started when 5.00 μL of 0.2 mM (working stock solutions) of different peptides were added to 0.995 mL of fresh human plasma in a 1.7-mL snap tube. After 3, 8 and 24 hours of incubation, duplicate 50.0 μL aliquots of plasma were removed and placed into extraction tubes containing 150 μL of methanol, which served to quench any reactions, and thus incubations were ended. For each time point, the aliquotes were immediately extracted by vortex mixing and centrifugation. Resulting supernates were stored in High-Performance Liquid Chromatography (HPLC) vials and analyzed by LC/MS/MS after all samples were extracted. Valacyclovir was used as a positive control.
LC/MS/MS analysis of the incubation solutions was conducted by initial separation of the test article peaks using chromatography prior to detection by the mass spectrometer. The LC/MS system was comprised of a HPLC coupled with a TQS-Micro or Quattro Premier (Waters, Milford, Mass.). The mobile phase was nebulized using heated nitrogen in a Z spray source/interface set to electrospray in positive ionization mode for the peptides. The ionized peptides were detected using Tandem Quadropole Mass Spectrometry (MS/MS). The data was acquired using MassLynx (Waters, Milford, Mass.).
HPLC for the peptides and Valacyclovir control were performed with no guard columns, with a flow rate at 0.3 mL/min, with column temperature at 40° C., and autosampler temperature at 10° C. The column for peptides was MacMod ACE 2 Excel C18PFP, 100×2.1-mm, 2.0 μm, and the column for the control was Waters Atlantis T3, 150×2.1-mm, 5.0 μm. The injection loop and volumn for peptides were 50.0 μL and 20.0 μL respectively, and the ones for controls were 20.0 μL and 2.00 μL. For the Mass Spectrometer for the peptides and the Valacyclovir control, the source temperature was set to be 150° C., desolvation temperature was set to be 350° C., and polarity was set to be positive mode of electrospray ionization. Other parameters in HPLC and Mass Spectrometer are shown in Table 2.1, Table 2.2 and Table 3 below.

stability in fresh human plasma (in words) [2] | % Remaining ([2]; fresh human plasma, 0 h incubation) [%] | remaining at 3 h, 1 µM ([2]; fresh human plasma, 3 h incubation) [%] | remaining at 8 h, 1 µM ([2]; fresh human plasma, 8 h incubation) [%] | remaining at 24 h, 1 µM ([2]; fresh human plasma, 24 h incubation) [%] | Compound | efficacy on increasing the dose 5× (in words) ([1]; SC) | maximum efficacious dose ([1]; SC dosing) | reduction in Aß 42 ([1]; SC, at the maximum efficacious dose (just over 50 mg/kg)) [%]
 |  |  |  |  | CC(=O)N[C@H](CC(=O)O)C(=O)N[C@@H](CCC(=O)O)C(=O)N[C@@H](CCC(=O)O)C(=O)N[C@@H](CCC(=O)O)C(=O)N[C@@H](CC(=O)O)C(=O)N[C@@H](CCC(=O)O)C(=O)N[C@@H](CCC(=O)O)C(=O)N[C@@H](CC(C)C)C(N)=O [8M2D, Ac-dEEEDEEL-NH2] (Ac-[dD]EEEDEEL-NH2) | only a marginal increase in efficacy | over 50 mg/kg | 65
relatively stable | 100 | 115 | 99.7 | 72 | DEEEDEEL-OH [P8, DEEEDEEL, reference compound] |  |  | 

Reference: patent US20220064214A1, “NOVEL PEPTIDES AND USES THEREOF” (CENNA BIOSCIENCES INC., priority 2019, published 2022)
